Consider 4 compounds from patent US20130225623A1, “Methods of Treating Psychiatric or Neurological Disorders with MGLUR Antagonists” (MOUNT SINAI SCHOOL OF MEDICINE, priority 2010, published 2013).

Several values for one entry are separate records, joined by “and”; a condition that tells them apart may be missing. Equal values may be shown once.

Common to all, as to format: cell-based, mouse
Experiment [1] relates to field EPSPs in hippocampal slices (area CA1); group I mGluRs. Kind of experiment: DHPG-induced long-term depression (mGluR-LTD), hippocampal slice electrophysiology. The following applies: for depression in synaptic transmission (field EPSP slope): at 30 min of application; for effect of mGluR blockade on DHPG-induced LTD: Cyfip1 heterozygotes, slices incubated with antagonist and DHPG (MPEP 10 μM; LY367385 100 μM). Here is the method:
(§1) Hippocampal slices (350 μm) were prepared from 4-6 week old heterozygous mice and their wild-type littermate controls. Slices were perfused with Ringer's solution containing (in mM): NaCl, 125.0; KCl, 2.5; MgSO4, 1.3; NaH2PO4, 1.0; NaHCO3, 26.2; CaCl2, 2.5; glucose, 11.0. The Ringer's solution was bubbled with 95% O2/5% CO2, at 32° C., during extracellular recordings (electrode solution: 3 M NaCl). Slices were maintained for 1 hr prior to establishment of a baseline of field excitatory postsynaptic potentials (fEPSPs) recorded from stratum radiatum in area CA1, evoked by stimulation of the Schaffer collateral-commissural afferents (100 μs pulses every 30 s) with bipolar tungsten electrodes placed into area CA3 (Bozdagi et al., 2000). Test stimulus intensity was adjusted to obtain fEPSPs with amplitudes that were one-half of the maximal response. The EPSP initial slope (mV/ms) was determined from the average waveform of four consecutive responses. Cycloheximide (60 μM, Sigma), dihydroxyphenylglycine (DHPG, 50 μM, Sigma), 2-methyl-6-phenylethynyl-pyridine (MPEP, 10 μM, Tocris), LY367385 (100 μM, Tocris), or rapamycin (20 nM, Enzo Life Sciences) were bath-applied for various durations as described in the Examples, below.
(§2) All experiments were performed in the presence of 100 μM 2-amino-5-phosphopentanoic acid (AP5). Paired-pulse responses were measured with interstimulus interval (ISI) of 50 ms, and are expressed as the ratio of the average responses to the second stimulation pulse (FP2) to the first stimulation pulse (FP1). LTP was induced by either a high-frequency stimulus (four trains of 100 Hz, 1 s stimulation separated by 5 min), a threshold levels of theta-burst stimulation (TBS) (5 bursts of four pulses at 100 Hz separated by 200 ms, (Lauterborn et al., 2007), or a single 100 Hz stimulation. To induce an mGluR-dependent LTD, Schaffer collaterals were stimulated by a paired-pulse low-frequency-stimulation (PP-LFS, 1 Hz for 20 min; 50 ms interstimulus interval (Huber et al., […]). DHPG-induced LTD was also used as described in the Examples, below
The mammalian target of rapamycin (mTOR) is an important regulator of translation in long-lasting forms of synaptic plasticity and it has been shown that DHPG-induced mGluR-LTD in hippocampal area CA1 is dependent on mTOR (see Richter and Klann, 2009). To determine whether mTOR is required for mGluR-LTD in Cyfip1 heterozygous mice, hippocampal slices were treated with DHPG in the presence of the mTOR inhibitor rapamycin.
Because mGluR5 activation is essential for mGluR-LTD induction, the effect of mGluR5 blockade on DHPG-induced LTD was examined. […] The effect of mGluR1 blockade on DHPG-induced LTD was also examined. […] The slices were next treated with both mGluR1 (LY367385) and mGluR5 (MPEP) antagonists.

Experiment [2] has as its system field EPSPs in hippocampal slices (area CA1). Kind of experiment: Protein synthesis-dependent LTP induced by high frequency stimulation (HFS), hippocampal slice electrophysiology.
In experiment [3] the test system is field EPSPs at Schaffer collateral-CA1 synapses in acute hippocampal slices. The experiment is described as follows: Paired-pulse low frequency stimulation (PP-LFS)-induced mGluR-LTD, hippocampal slice electrophysiology. The conditions noted are these: for effect on PP-LFS-induced LTD: cycloheximide 60 μM; for field EPSP slope: in the presence of cycloheximide (60 μM), at 60 min after PP-LFS. Here is the method:
as §1, §2
To examine the role of CYFIP1 in mGluR-LTD, field EPSPs were recorded at Schaffer collateral-CA1 synapses in acute hippocampal slices prepared from wild-type and Cyfip1 heterozygous mice.
One of the most striking abnormalities in experimental synaptic plasticity observed in the absence of FMRP is that mGluR-LTD is independent of protein synthesis in these animals. As the Cyfip1 heterozygotes have enhanced LTD, similar to what is observed in the absence of FMRP, mGluR-LTD in the presence of the protein synthesis inhibitor cycloheximide was examined.

For the compound `NC(C(=O)O)c1cc(O)cc(O)c1` (racemic) [DHPG, (RS)-3,5-dihydroxyphenylglycine], the “depression in synaptic transmission (field EPSP slope)” value was 70.5±6 % of baseline in experiment [1] (Cyfip1 heterozygous mice, DHPG 50 μM) and 81.2±3 % of baseline in experiment [1] (wild-type mice, DHPG 50 μM).
With `Cc1cc(C(=O)O)ccc1[C@H](N)C(=O)O` [LY367385], the “effect of mGluR blockade on DHPG-induced LTD” value in experiment [1] was “did not cause any change”.
Turning to `Cc1cccc(C#Cc2ccccc2)n1` [MPEP, 2-methyl-6-(phenylethynyl)-pyridine], the “effect of mGluR blockade on DHPG-induced LTD” value in experiment [1] is “did not cause any change”.
Consider `C[C@@H]1C[C@@H]([C@H](O)CC2CC(=O)NC(=O)C2)C(=O)[C@@H](C)C1` [cycloheximide], for which the “field EPSP slope” value is 99±8 % of baseline and 100.8±8.2 % of baseline in experiment [2]; 68.49±8.9 % of baseline in experiment [3] (Cyfip1 heterozygous slices); 98.05±2.5 % of baseline in experiment [3] (wild-type slices). Also, the “inhibition of protein synthesis-dependent LTP, comparison between genotypes” value in experiment [2] (wild-type vs Cyfip1 heterozygous mice, cycloheximide 60 μM, rapamycin 20 nM) is given as “did not differ between genotypes”. The “effect on PP-LFS-induced LTD” value in experiment [3] (Cyfip1 heterozygous animals) is “not affected”; in experiment [3] (wild-type littermate controls), “inhibited LTD”. The “effect on DHPG-induced LTD” value in experiment [1] (wild-type mice, 60 μM cycloheximide, DHPG 50 μM) is reported as “reduced LTD”.
